The text below walks through data of patent US20230122911A1, “FORMULATIONS OF ENZALUTAMIDE” (Astellas Pharma Inc., priority 2012, published 2023).

Series [1] is described as follows: Solubility test with polymers (Example 24). To be noted: USP phosphate buffer (pH 6.8), pH 6.8, aqueous buffer, kinetic from dmso stock, after 5 min.
A short description of another series: physchem. To be noted: USP phosphate buffer (pH 6.8), pH 6.8, aqueous buffer, kinetic from dmso stock.

Molecules are shown by their SMILES. Values after ≈ are worked out from the molar mass of the structure shown.

Take `CNC(=O)c1ccc(N2C(=S)N(c3ccc(C#N)c(C(F)(F)F)c3)C(=O)C2(C)C)cc1F` [enzalutamide, 4-{3-[4-cyano-3-(trifluoromethyl)phenyl]-5,5-dimethyl-4-oxo-2-sulfanylideneimidazolidin-1-yl}-2-fluoro-N-methylbenzamide]: the solubility at 5 min in series [1] (with copolyvidone) stood at 47.4 µg/mL (≈ 102 µM); in series [1] (with hydroxypropylmethylcellulose 2910 (TC-5E)), 42.7 µg/mL (≈ 91.9 µM); in series [1] (with hydroxypropylmethylcellulose 2910 (TC-5R)), 39.2 µg/mL (≈ 84.4 µM); in series [1] (with polyvinylpyrrolidone) it was 40.1 µg/mL (≈ 86.3 µM); in series [1] (without polymer) it was 29 µg/mL (≈ 62.4 µM); in “physchem”, 31.1 µg/mL (≈ 67 µM).
